Columns and labels:
bacterial strain LMB275 = assay: Sensitivity of the bacterial strain to antibiotics, disc diffusion method; type: cell-based, Aquabacterium strain LMB275; details: modified R2A agar, 48 and 72 h at 30° C.
Experimental: The sensitivity of the bacterial strain to antibiotics was tested by the disc diffusion method after spreading cell suspensions (8.0 McFarland) on modified R2A agar plates. The antibiotics and their concentration used on filter-paper discs for the susceptibility assay are listed in the species definition. The effect of antibiotics on cell growth was assessed after 48 and 72 h at 30° C.

[1] = tested on: normal human epidermal keratinocytes (NHEK) stimulated by an inflammatory cytokine mix (IL-4+IL-13+IL-22+TNF-α); assay: Gene expression (RT-qPCR) in cytokine-stimulated normal human epidermal keratinocytes, in vitro model of chronic atopic dermatitis; type: cell-based
Experimental: The effects of the bacterial extracts prepared in example 3 (i.e., L0, BL0, S0 and ES0) on gene expression were assessed with normal human epidermal keratinocytes (NHEK) which have been stimulated by an inflammatory cytokine mix (IL-4+IL-13+IL-22+TNF-α), a particularly useful model representative of the chronic phase of atopic dermatitis.
Keratinocytes were seeded in 24-well plates and grown for 24 hours in growth medium with culture conditions at 37° C. and 5% C02. The growth medium comprised Keratinocyte SFM (Serum Free Medium) supplemented with Epidermal Growth Factor (EGF) 0.25 ng/ml, Pituitary extract (PE) 25 μg/ml and Gentamycin 25 μg/ml. The medium was then removed and replaced by assay medium containing either no added extract or compound (negative control), one of the bacterial extracts of example 3 (L0, BL0, S0 or ES0), or the reference compound (JAK Inhibitor | at 10 μM). Cells were then pre-incubated for 24 hours. The assay medium comprised Keratinocyte SFM supplemented with Gentamycin 25 μg/ml.
After pre-incubation, the assay medium was renewed, the mix of cytokines (IL-4+IL-13+TNF-α +IL-22, each at 10 ng/ml) added and the cells then incubated for 24 hours. Cytokine stimulation induces a phenotype in NHEK which is similar to the one observed during the chronic phase of atopic dermatitis (Bernard et al., 2012). In parallel, non-stimulated controls are performed.
All experiments were performed in triplicate (n=3).
Cells from the replicates of the same experimental condition were pooled.
Total RNA was extracted with TriPure Isolation Reagent® (Roche Molecular System Inc.) according to the supplier's instruction. The complementary DNA (cDNA) was synthetised by reverse transcription of total RNA in presence of oligo (dT) and Transcriptor Reverse Transcriptase (Roche Molecular System Inc.).
RT-qPCR (real time quantitative PCR) was used to analyse the expression of markers in total RNA extracted from the cell monolayers of each experimental condition. The LightCycler® system (Roche Molecular System Inc.) was used according to the supplier's instruction,
Two reference genes (GAPDH and RPS28) were used in the PCR array for data normalisation because of their constitutive expression. Consequently, the level of expression of the target markers was compared to the mean expression level of these 2 markers for all test conditions.
Different genes markers are reported: • barrier function, differentiation, lipid and desquamation markers: coding gene of Small Proline Rich Protein 1B (SPRR1B), coding gene of Kallikrein Related Peptidase 7 (KLK7), coding gene of Involucrin (IVL), coding gene of Caspase 14 (CASP14), coding gene of Sciellin (SCEL) and coding gene of sulfotransferase family, cytosolic, 2B, member 1 (SULT2B1); • antimicrobial and innate immunity markers: coding gene of serpin peptidase inhibitor, clade B, member 13 (SERPINB13), coding gene of calcium binding protein A7 (S100A7), coding gene of Toll-like receptor 2 (TLR2); • inflammation markers: coding gene of Chemokine (C-C motif) ligand 5 (CCL5), coding gene of Chemokine (C-C motif) ligand 27 (CCL27) and coding gene of interleukin 13 receptor, alpha 2 (IL13RA2).

[2] = NHEK, cytokine mix 10 ng/ml + JAK inhibitor I 10 μM, Mean HK normalisation
[3] = NHEK, cytokine mix 10 ng/ml + JAK inhibitor I 10 μM, Mean HK normalisation, 1440 min
[4] = cytokine-stimulated NHEK, JAK inhibitor I 10 μM
[5] = cytokine-stimulated NHEK, JAK inhibitor I 10 μM, listed as JAK Inhibitor I

With `CC1(C)S[C@@H]2[C@H](NC(=O)[C@H](N)c3ccc(O)cc3)C(=O)N2[C@H]1C(=O)O` [amoxicillin] as the molecule, how does the “sensitivity of the bacterial strain to the antibiotic” value (shortened to “sensitivity of the bacterial strain”) (bacterial strain LMB275; disc 30 μg) read?
The value was “resistant”.

With `CC1(C)S[C@@H]2[C@H](NC(=O)Cc3ccccc3)C(=O)N2[C@H]1C(=O)O` [penicillin] as the molecule, how does the “sensitivity of the bacterial strain” value (bacterial strain LMB275; disc 10 UI) read?
The value was “resistant”.

With `CN(C)[C@@H]1C(=O)C(C(N)=O)=C(O)[C@@]2(O)C(=O)C3=C(O)c4c(O)cccc4[C@@](C)(O)[C@H]3C[C@@H]12` [tetracyclin] as the molecule, how does the “sensitivity of the bacterial strain” value (bacterial strain LMB275; disc 30 μg) read?
The value was “sensitive”.

With `CC(C)(C)c1nc2c3cc[nH]c(=O)c3c3cc(F)ccc3c2[nH]1` [JAK inhibitor I] as the molecule, how does the SPRR1B gene expression [1, 2] read?
The SPRR1B gene expression was 557 % control.

What about the SULT2B1 gene expression [1, 2] of the same molecule?
The SULT2B1 gene expression was 231 % control.

And the CASP14 gene expression [1, 3]?
The CASP14 gene expression was 199 % control.

What about the CCL5 gene expression [1, 3] of the same molecule?
The CCL5 gene expression was 23 % control.

And the CCL27 gene expression [1, 3]?
The CCL27 gene expression was 72 % control.

What about the IL13RA2 gene expression [1, 3] of the same molecule?
Its IL13RA2 gene expression is 12 % control.

What about the IVL gene expression [1, 3] of the same molecule?
Its IVL gene expression is 986 % control.

What about the KLK7 gene expression [1, 3] of the same molecule?
Its KLK7 gene expression is 146 % control.

And the S100A7 gene expression [1, 3]?
Its S100A7 gene expression is 94 % control.

What about the SCEL gene expression [1, 3] of the same molecule?
The SCEL gene expression was 141 % control.

And the SERPINB13 gene expression [1, 3]?
Its SERPINB13 gene expression is 27 % control.

What about the TLR2 gene expression [1, 3] of the same molecule?
Its TLR2 gene expression is 21 % control.

What about the “expression of antimicrobial and innate immunity markers (in words)” value [1, 4] of the same molecule?
Its value is “decrease”.

What about the “expression of inflammation markers (in words)” value [1, 4] of the same molecule?
Its value is “decrease”.

And the “expression of keratinocyte differentiation markers (in words)” value [1, 4]?
Its value is “increase”.

And the “expression of antimicrobial and innate immunity markers (in words)” value [1, 5]?
The value was “down-regulating”.

What about the “expression of inflammation markers (in words)” value [1, 5] of the same molecule?
Its value is “down-regulating”.

How did the “sensitivity of the bacterial strain” value (bacterial strain LMB275; disc 10 μg) turn out when `CC1(C)S[C@@H]2[C@H](NC(=O)[C@H](N)c3ccccc3)C(=O)N2[C@H]1C(=O)O` [ampicillin] was run?
The value was “resistant”.

How did the “sensitivity of the bacterial strain” value (bacterial strain LMB275; disc 10 μg) turn out when `C[C@@H](O)[C@H]1C(=O)N2C(C(=O)O)=C(SCCN=CN)C[C@H]12` [imipenem] was run?
Its value is “sensitive”.

With `CC1COc2c(N3CCN(C)CC3)c(F)cc3c(=O)c(C(=O)O)cn1c23` (centres unmarked) [ofloxacin] as the molecule, how does the “sensitivity of the bacterial strain” value (bacterial strain LMB275; disc 5 μg) read?
Its value is “sensitive”.

Which “sensitivity of the bacterial strain” value (bacterial strain LMB275; disc 30 μg) does the source give for `CO/N=C(\C(=O)N[C@@H]1C(=O)N2C(C(=O)O)=C(COC(C)=O)CS[C@H]12)c1csc(N)n1` [cefotaxim] here?
The value was “resistant”.

Which “sensitivity of the bacterial strain” value (bacterial strain LMB275; disc 15 μg) does the source give for `CC[C@H]1OC(=O)[C@H](C)[C@@H](O[C@H]2C[C@@](C)(OC)[C@@H](O)[C@H](C)O2)[C@H](C)[C@@H](O[C@@H]2O[C@H](C)C[C@H](N(C)C)[C@H]2O)[C@](C)(O)C[C@@H](C)C(=O)[C@H](C)[C@@H](O)[C@]1(C)O` [erythromycin] here?
Its value is “sensitive”.

`O=C(N[C@H](CO)[C@H](O)c1ccc([N+](=O)[O-])cc1)C(Cl)Cl` [chloramphenicol] was tested. Which “sensitivity of the bacterial strain” value (bacterial strain LMB275; disc 30 μg) did it give?
The value was “sensitive”.

`CO[C@H]1/C=C/O[C@@]2(C)Oc3c(C)c(O)c4c(O)c(c(/C=N/N5CCN(C)CC5)c(O)c4c3C2=O)NC(=O)/C(C)=C\C=C\[C@H](C)[C@H](O)[C@@H](C)[C@@H](O)[C@@H](C)[C@H](OC(C)=O)[C@@H]1C` [rifampicin] was tested. Which “sensitivity of the bacterial strain” value (bacterial strain LMB275; disc 30 μg) did it give?
The value was “sensitive”.

For `[H]/N=C(/N)N[C@H]1[C@H](O)[C@@H](O)[C@H](O[C@@H]2O[C@@H](C)[C@](O)(C=O)[C@H]2O[C@@H]2O[C@@H](CO)[C@H](O)[C@@H](O)[C@@H]2NC)[C@@H](N/C(N)=N\[H])[C@@H]1O` [streptomycin], which “sensitivity of the bacterial strain” value (bacterial strain LMB275; disc 10 μg) is on record?
Its value is “sensitive”.

With polymixin B as the molecule, how does the “sensitivity of the bacterial strain” value (bacterial strain LMB275; disc 300 UI) read?
The value was “resistant”.

`NC[C@H]1O[C@H](O[C@H]2[C@H](O)[C@@H](O[C@H]3O[C@H](CO)[C@@H](O)[C@H](N)[C@H]3O)[C@H](N)C[C@@H]2N)[C@H](O)[C@@H](O)[C@@H]1O` [kanamycin] was tested. Which “sensitivity of the bacterial strain” value (bacterial strain LMB275; disc 30 μg) did it give?
Its value is “sensitive”.

Which “sensitivity of the bacterial strain” value (bacterial strain LMB275; disc 30 μg) does the source give for `CN[C@H](CC(C)C)C(=O)N[C@H]1C(=O)N[C@@H](CC(N)=O)C(=O)N[C@H]2C(=O)N[C@H]3C(=O)N[C@H](C(=O)N[C@H](C(=O)O)c4cc(O)cc(O)c4-c4cc3ccc4O)[C@H](O)c3ccc(c(Cl)c3)Oc3cc2cc(c3O[C@@H]2O[C@H](CO)[C@@H](O)[C@H](O)[C@H]2O[C@H]2C[C@](C)(N)[C@H](O)[C@H](C)O2)Oc2ccc(cc2Cl)[C@H]1O` [vancomycin] here?
Its value is “sensitive”.

Which “sensitivity of the bacterial strain” value (bacterial strain LMB275; disc 5 μg) does the source give for `O=C(O)c1cn(C2CC2)c2cc(N3CCNCC3)c(F)cc2c1=O` [ciprofloxacin] here?
Its value is “sensitive”.

— patent publication US20260286287A1, “NOVEL BACTERIAL STRAIN USEFUL FOR TREATING CUTANEOUS INFLAMMATION” (PIERRE FABRE DERMO-COSMETIQUE, priority 2023, published 2026)
